Results: patent publication US7622551B2, “Leukocyte stimulating peptides” (POSCO, priority 2004, dated 2009)
Where no end group is shown, it is not given here.

Experiments:
human neutrophils [1] = experiment: Chemotaxis assay (modified Boyden chamber), neutrophils; type: cell-based; conditions: concentrations less than 10 μM
Description: (§1) FIGS. 6A and 6B show chemotactic effect of peptides. Assays were performed using a modified Boyden chamber assay, as described in the Examples. Isolated human neutrophils (A) or monocytes (B) (1×10^6 cells/ml in serum free RPMI) were added to the upper wells of a 96-well chemotaxis chamber and migration across a 3 μm pore size (5 μm for monocytes) polycarbonate membrane was assessed after 2 hrs incubation at 37° C. The numbers of migrated cells were determined by counting them in a high power field (400×). Results are presented as means±S.E. of three independent experiments each performed in duplicate.
Chemotaxis assays were performed using multiwell chambers (Neuroprobe Inc., Gaithersburg, Md.) (Bae et al. Blood. 2001. 97: 2854-2862). Briefly, prepared human monocytes were suspended in RPMI at a concentration of 1×10^6 cells/ml, and 25 μl of the suspension was then placed onto the upper well of a chamber separated by a 5 μm polyhydrocarbon filter (3 μm pores size not polyvinylpyrrolidone coated, as is needed for neutrophils) from peptides or N-formyl-methionyl-leucyl-phenylalanine (fMLF) in the lower well. […] Stained cells were counted in five randomly chosen high power fields (HPF) (400×) (Bae et al. Blood. 2001. 97: 2854-2862).

human monocytes = experiment: Chemotaxis assay (modified Boyden chamber), monocytes; type: cell-based; conditions: FIG. 6B; control peptide at concentrations less than 10 μM
Description: as §1
Chemotaxis assays were performed using multiwell chambers (Neuroprobe Inc., Gaithersburg, Md.) (Bae et al. Blood. 2001. 97: 2854-2862). Briefly, prepared human monocytes were suspended in RPMI at a concentration of 1×10^6 cells/ml, and 25 μl of the suspension was then placed onto the upper well of a chamber separated by a 5 μm polyhydrocarbon filter (3 μm pores size not polyvinylpyrrolidone coated, as is needed for neutrophils) from peptides or N-formyl-methionyl-leucyl-phenylalanine (fMLF) in the lower well. After incubation for 2 hours (90 minutes for neutrophils) at 37° C., non-migrated cells were removed by scraping, and cells that migrated across the filter were dehydrated, fixed, and stained with hematoxylin (Sigma, St. Louis, Mo.). Stained cells were counted in five randomly chosen high power fields (HPF) (400×) (Bae et al. Blood. 2001. 97: 2854-2862).

FPRL1 = biological target: T1, FPRL1 (Homo sapiens, UniProt P25090); experiment: [Ca2+]i increase in FPRL1-expressing RBL-2H3 cells; type: cell-based; conditions: 10 μM of each peptide (FIG. 7)
T1 construct: expressed in transfected cells; host or cells: RBL-2H3
T1 sequence (P25090 1-351): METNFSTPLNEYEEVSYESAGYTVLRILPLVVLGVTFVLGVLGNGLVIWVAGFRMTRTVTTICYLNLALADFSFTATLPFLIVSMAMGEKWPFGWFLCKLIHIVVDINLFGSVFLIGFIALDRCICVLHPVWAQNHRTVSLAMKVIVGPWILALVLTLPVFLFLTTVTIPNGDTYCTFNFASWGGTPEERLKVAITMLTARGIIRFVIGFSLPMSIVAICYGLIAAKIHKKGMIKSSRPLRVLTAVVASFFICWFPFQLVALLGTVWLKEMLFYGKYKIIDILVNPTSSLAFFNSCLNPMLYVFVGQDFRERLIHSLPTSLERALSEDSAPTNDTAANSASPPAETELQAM
Description: (§2) U937 (human histiocytic lymphoma cells), HL60 (human promyelocytic leukemia cells), Raw 264.7 (mouse macrophage), Jurkat (human acute T cell leukemia), PC12 (rat adrenal pheochromocytoma cells), 3Y1 (Rat embryonic fibroblasts), 3T3L1 (preadipocytes), and NCI-H292 (human mucoepidermoid pulmonary carcinoma cells) were obtained from the American Type Culture Collection (Rockville, Md.) and maintained as recommended. FPR- or FPRL1 expressing RBL-2H3 cells were cultured as described previously (He et al. J. Immunol. 2000. 165: 4598-4605). Cells were maintained at about 1×10^6 cells/ml under standard incubator conditions (humidified atmosphere, 95% air, 5% CO2, at 37° C.). HL60 cells were induced to differentiate into the granulocyte phenotype by adding dimethylsulfoxide (DMSO) (final concentration 1.25%, v/v) for 4 days to the culture medium, as described previously (Itoh et al. Blood. 1998. 92: 1432-1441).
(§3) The level of [Ca^2+]i was determined using Grynkiewicz's method using fura-2/AM (Grynkiewicz et al. J. Biol. Chem. 1985. 260: 3440-3550). Briefly, prepared cells were incubated with 3 μM of fura-2/AM at 37° C. for 50 min in serum-free RPMI 1640 medium under continuous stirring. 2×10^6 cells were aliquoted for each assay in Ca^2+ free Locke's solution (154 mM NaCl, 5.6 mM KCl, 1.2 mM MgCl2, 5 mM HEPES, pH 7.3, 10 mM glucose, and 0.2 mM EGTA). Fluorescence changes were measured at the dual excitation wavelength of 340 nm and 380 nm, and the calculated fluorescence ratio was translated into [Ca^2+]i.

[2] = tested on: differentiated HL60 cells; experiment: Arachidonic acid (AA) release in [3H]AA-labeled dHL60 cells; type: cell-based, human
Description: as §2
For the initial screening of the PS-SPCLs, we measured the AA release stimulating activity of each peptide pool. Cultured dHL60 cells (10^7 cells/ml) were pre-labeled with 0.5 μCi/ml of (^3H)-AA in RPMI 1640 medium containing 10% FBS for 90 min at 37° C. in a humidified incubator supplied with 95% air and 5% CO2, as described previously (Bae et al. J. Immunol. 2000. 164: 4089-4096). The labeled cells were then washed twice with serum-free RPMI 1640 and incubated in RPMI 1640 medium containing 0.1% fatty acid-free BSA for 15 min at 37° C. After discarding the medium, the cells were stimulated with various concentrations of peptide for the indicated times. Radioactivity in the medium and of collected cells was determined with a liquid scintillation counter. When investigating the effects of inhibitors, cells were preincubated with the indicated concentrations of each inhibitor or vehicle for 15 min prior to stimulation.

[3] = tested on: differentiated HL60 cells; experiment: [Ca2+]i increase in fura-2 loaded dHL60 cells; type: cell-based, human
Description: as §2, §3

human neutrophils [4] = experiment: Superoxide generation (cytochrome c reduction) in human neutrophils; type: cell-based; conditions: 1 μM of peptide, cytochrome c reduction
Description: Peripheral blood leukocyte concentrates were donated by the Ulsan Red Cross Blood Center (Ulsan, Korea). PBMCs were separated on a Histopaque-1077 gradient. After two washings with HBSS without Ca^2+ and Mg^2+, the PBMCs were suspended in 10% FBS containing RPMI and incubated for 60 min at 37° C. to let the monocytes attach to the culture dish. Cells were washed 5 times with warmed RPMI medium to remove lymphocytes, and then the attached monocytes were collected, as described previously (Bae et al. J. Leukoc. Biol. 1999. 65: 241-248). Human neutrophils were isolated according to standard procedures; i.e., dextran sedimentation, hypotonic lysis of erythrocytes, and using a medium lymphocyte separation gradient, as described previously (Seo et al. J. Immunol. 1997. 158: 1895-1901). Isolated human leukocytes were then used promptly.
We determined superoxide anion generation by measuring cytochrome c reduction using a microtiter 96 well plate ELISA reader (Bio-Tekinstruments, EL312e, Winooski, Vt.) as described previously (Bae et al. Blood. 2001. 97: 2854-2862). Human neutrophils (1×10^6 cells/100 μl of RPMI 1640 medium per well of a 96-well plate) were preincubated with 50 μM of cytochrome c at 37° C. for 1 min and then incubated with the indicated peptide concentrations. Superoxide generation was determined from change in light absorption at 550 nm over 5 minutes at 1 min intervals.

FPR = biological target: T2, FPR (Homo sapiens, UniProt P21462); experiment: [Ca2+]i increase in FPR-expressing RBL-2H3 cells; type: cell-based; conditions: data not shown
T2 construct: expressed in transfected cells; host or cells: RBL-2H3
T2 sequence (P21462 1-350): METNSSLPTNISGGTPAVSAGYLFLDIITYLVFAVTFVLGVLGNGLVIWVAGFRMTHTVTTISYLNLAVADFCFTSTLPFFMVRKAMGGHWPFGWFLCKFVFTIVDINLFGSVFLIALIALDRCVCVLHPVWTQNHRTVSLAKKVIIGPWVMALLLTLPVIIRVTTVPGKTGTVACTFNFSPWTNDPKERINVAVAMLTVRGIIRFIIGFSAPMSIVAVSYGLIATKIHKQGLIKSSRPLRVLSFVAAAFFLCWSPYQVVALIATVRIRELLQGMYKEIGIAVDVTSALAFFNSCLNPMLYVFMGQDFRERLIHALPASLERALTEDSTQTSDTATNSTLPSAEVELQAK
Description: as §2, §3

[5] = tested on: undifferentiated HL60 cells; experiment: [Ca2+]i increase in undifferentiated HL60 cells; type: cell-based, human
Description: as §2, §3

ERK = ERK phosphorylation in dHL60 cells (anti-phospho-ERK immunoblot); type: cell-based, human
Description: Each sample (30 μg of protein) was subjected to 8% SDS-PAGE, and phosphorylated ERK was quantified by immunoblot analysis with anti-phospho-ERK antibody. The results shown are from a single experiment representative of at least three independent experiments.
Extracellular signal regulated protein kinase (ERK) is a well-known intracellular enzyme that mediates diverse cellular responses (Sugden et al. Cell Signal. 1997. 9: 337-351). […] To compare the intracellular signaling involving these 4 peptides, dHL60 cells were pretreated either with LY294002 (50 μM), GF109203X (5 μM), or PD98059 (50 μM) or left untreated as a control. After being incubated for the indicated periods (15 minutes for LY294002 and GF109203X, 60 minutes for PD98059), the cells were stimulated with 1 μM of each peptide for 5 minutes.

Substance | Cellular chemotaxis in neutrophils (in words) (human neutrophils [1]) | Cellular chemotaxis in human monocytes (in words) (human monocytes) | [Ca^2+]i increase in FPRL1-expressing RBL-2H3 cells (FPRL1) | AA release stimulating activity (in words) ([2]; dHL60 cells, 10 μM) | Effect of cPLA2-specific inhibitors AACOCF3 and MAFP on peptide-induced AA release ([2]; dHL60 cells, inhibitor pretreatment 15 min, 1 μM peptide) | Folds of increase (% of total), arachidonic acid release ([2]; differentiated HL60 cells, 10 μM of peptide) [folds] | Concentration of maximal activity, [Ca^2+]i increase ([3]; dHL60 cells, data not shown) | [Ca^2+]i ([3]; differentiated HL60 cells, fura-2, 1 μM of peptide) [nM] | Superoxide production (human neutrophils [4]) [nmole/10^6 cells] | [Ca^2+]i in FPR-expressing RBL-2H3 cells / ligand for FPR (FPR) | [Ca^2+]i increase in undifferentiated HL60 cells ([5]; peptides 10 μM (FIG. 8)) | Effect of PTX on peptide-stimulated calcium signaling ([5]; undifferentiated HL60 cells, data not shown) | Phosphorylation level of ERK (ERK; dHL60 cells (FIG. 9)) | Effect of GF109203X (PKC) on peptide-induced ERK phosphorylation (ERK; dHL60 cells, GF109203X (5 μM) 15 minutes, 1 μM peptide 5 minutes) | Effect of LY294002 (PI3K) on peptide-induced ERK phosphorylation (ERK; dHL60 cells, LY294002 (50 μM) 15 minutes, 1 μM peptide 5 minutes) | Effect of PD98059 (MEK) on peptide-induced ERK phosphorylation (ERK; dHL60 cells, PD98059 (50 μM) 60 minutes, 1 μM peptide 5 minutes) | Time of maximal ERK activation after stimulation (ERK; dHL60 cells, data not shown) [min]
LFMYHP [reference compound] | did not induce | did not induce | not to be able to induce calcium increase | – | – | – | – | – | – | – | – | – | – | – | – | – | –
RKYYYM-NH2 [Peptide P18] | – | – | induced calcium increase | most potent | blocked | 2.61 ± 0.295 | approximately 3 μM | 150 ± 14.5 | 28.4 ± 3.21 | not for FPR | dramatically induced | partially inhibited | dramatic increase | completely blocked | not by LY294002 | partially blocked | 5
